Experimental data: PubChem BioAssay AID1963850 (Molecular Pharmacology Branch, DTP, NCI, 2024)
“And” between values parts separate entries of the source, which are not always exact repeats. Identical values can stand only once.

System: 192522-019-R-J2-PDC complex tumor spheroid viability
Assay: Anticancer human tumor 192522-019-R-J2-PDC patient-derived colon adenocarcinoma cell line growth inhibition [POLQ]
Details: for viability, T/C: stronger effect = lower value
Experimental: Multicellular complex tumor spheroid response to Polymerase (POL) inhibitors (novobiocin, ART-558, RP6685) in combination with a variety of drugs and investigational agents in selected tumor cell lines
The POL inhibitors (novobiocin, ART-558, and RP6685) were evaluated both individually and in combination with standard of care and investigational anticancer small molecules within a complex spheroid model of solid tumors. . Complex spheroids include a stromal component modeled by human endothelial cells (HUVEC) and fibroblasts modeled by human mesenchymal stem cells (MSCs). The concentration ranges selected for each drug and investigational agent were based upon clinically achievable concentrations if the clinical Cmax of the agent was known.
Compounds. The drugs and investigational agents: novobiocin (NSC847541), ART-558 (NSC835418), RP-6685 (NSC848927), peposertib (NSC802822), ceralasertib (NSC780249), elimusertib (NSC800525), camonsertib (NSC841442), AZD-1390 (NSC803789), olaparib (NSC753686), talazoparib (NSC767125), rucaparib (NSC756644), sotorasib (NSC818433), MRTX-1133 (NSC836407), SN-38 (NSC673596), topotecan (NSC609699), epotoside (NSC141540), doxorubicin (NSC123127), gemcitabine (NSC613327), 5-fluorouracil (NSC19893), paclitaxel (NSC125973), vemurafenib (NSC761431), MSA-2 (NSC828583), SN-011 (NSC837082), adavosertib (NSC754352), prexasertib (NSC758257), carboplatin (NSC241240) and oxaliplatin (NSC266046), were obtained from the National Cancer Institute (NCI) Developmental Therapeutics Program Chemical Repository (21). The FDA-approved anticancer drug set is available from the Developmental Therapeutics Program at https://dtp.cancer.gov/organization/dscb/obtaining/. […] The stock solutions were prepared in dimethyl sulfoxide (DMSO, Sigma-Aldrich, St. Louis, MO, cat. D2650), except for the platinum compounds which were prepared in saline (Quality Biological, Gaithersburg, MD, cat. 114-055-101), at 800-fold the tested concentration and stored at -70 degrees C prior to their use. All drugs and investigational agents were tested over a range starting from a high concentration at or near the clinical Cmax and decreasing in half-log increments. If the clinical Cmax for an agent had not been determined, the highest concentration tested was 10 microM, except for SN-38, which was tested at a high concentration of 1 microM.
Cell Culture. All cells were maintained in an incubator at 37 degrees C and 5% CO2 with 95% humidity. The PDC lines were cultured according to standard operating procedures established by the NCI PDMR (https://pdmr.cancer.gov). Table 3 of the manuscript, lists the cell lines along with the number of the three cell types plated to form the mct-spheroids and media for tumor cell growth. After thawing, all PDC lines, except 997537-175-T-J1-PDC and 415267-285-R-J2-PDC, were cultured in Matrigel-coated flasks prepared with a working solution of 1X Ham's F-12 nutrient mix, without supplementation (Thermo Fisher Scientific, cat. 11765054), 100 U/mL penicillin-streptomycin (Thermo Fisher Scientific, cat. 15140122), and 2.5% Matrigel (Corning Inc., Corning, NY, cat. 354248) for the first three passages. The two PDC lines 997537-175-T-J1-PDC and 415267-285-R-J2-PDC were cultured on uncoated flasks. The 857933-349-R-J2-PDC line was cultured in 6C/Colon 1B media containing advanced DMEM/F-12 (Thermo Fisher Scientific, cat. 12634028), 10 mM HEPES (Thermo Fisher Scientific, cat. 15630080), 1X GlutaMAX supplement (Thermo Fisher Scientific, cat. 35050061), 0.1 mg/mL primocin (InvivoGen, San Diego, CA, cat. ant-pm-2), 10% defined fetal bovine serum, heat inactivated (HyClone Laboratories Inc., Logan, UT, cat. SH30070.03HI), 50% L-WRN conditioned media (ATCC, cat. CRL-3276), 1.25 mM N-Acetyl-L-cysteine (Sigma-Aldrich, cat. A9165), 10 mM nicotinamide (Sigma-Aldrich, cat. N0636), 1X B-27 supplement (Thermo Fisher Scientific, cat. 17504044), 1X N-2 supplement (Thermo Fisher Scientific, cat. […]
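Also: spheroids exposed to drugs for seven days before reading.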
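For viability, T/C in this document: 100% = DMSO vehicle control viability in luminescence.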

COc1cc(C2c3cc4c(cc3C(OC3OC5COC(C)OC5C(O)C3O)C3COC(=O)C23)OCO4)cc(OC)c1O (stereo not given) + COC1C(OC(N)=O)C(O)C(Oc2ccc3c(O)c(NC(=O)c4ccc(O)c(CC=C(C)C)c4)c(=O)oc3c2C)OC1(C)C
IC50 (curve of first compound, second compound 0.0316 µM): > 10000 nM
IC50 (curve of first compound, second compound 0.1 µM): > 10000 nM
IC50 (curve of first compound, second compound 0.316 µM): > 10000 nM
IC50 (curve of first compound, second compound 1 µM): > 10000 nM
IC50 (curve of first compound, second compound 3.16 µM): > 10000 nM
IC50 (curve of first compound, second compound 10 µM): > 10000 nM
viability, T/C (second compound 0.0316 µM, first compound 0.0316 µM): 106%
viability, T/C (second compound 0.0316 µM, first compound 0.1 µM): 89.3%
viability, T/C (second compound 0.0316 µM, first compound 0.316 µM): 92.4%
viability, T/C (second compound 0.0316 µM, first compound 1 µM): 82.1%
viability, T/C (second compound 0.0316 µM, first compound 3.16 µM): 58.6%
viability, T/C (second compound 0.0316 µM, first compound 10 µM): 54.2%
viability, T/C (second compound 0.1 µM, first compound 0.0316 µM): 104%
viability, T/C (second compound 0.1 µM, first compound 0.1 µM): 95.7%
viability, T/C (second compound 0.1 µM, first compound 0.316 µM): 100%
viability, T/C (second compound 0.1 µM, first compound 1 µM): 84%
viability, T/C (second compound 0.1 µM, first compound 3.16 µM): 56.8%
viability, T/C (second compound 0.1 µM, first compound 10 µM): 59.4%
viability, T/C (second compound 0.316 µM, first compound 0.0316 µM): 95.6%
viability, T/C (second compound 0.316 µM, first compound 0.1 µM): 97.8%
viability, T/C (second compound 0.316 µM, first compound 0.316 µM): 101%
viability, T/C (second compound 0.316 µM, first compound 1 µM): 83%
viability, T/C (second compound 0.316 µM, first compound 3.16 µM): 55.2%
viability, T/C (second compound 0.316 µM, first compound 10 µM): 64%
viability, T/C (second compound 1 µM, first compound 0.0316 µM): 106%
viability, T/C (second compound 1 µM, first compound 0.1 µM): 101%
viability, T/C (second compound 1 µM, first compound 0.316 µM): 96.6%
viability, T/C (second compound 1 µM, first compound 1 µM): 103%
viability, T/C (second compound 1 µM, first compound 3.16 µM): 59.7%
viability, T/C (second compound 1 µM, first compound 10 µM): 57.4%
viability, T/C (second compound 3.16 µM, first compound 0.0316 µM): 110%
viability, T/C (second compound 3.16 µM, first compound 0.1 µM): 109%
viability, T/C (second compound 3.16 µM, first compound 0.316 µM): 99.9%
viability, T/C (second compound 3.16 µM, first compound 1 µM): 84.7%
viability, T/C (second compound 3.16 µM, first compound 3.16 µM): 67%
viability, T/C (second compound 3.16 µM, first compound 10 µM): 60.6%
viability, T/C (second compound 10 µM, first compound 0.0316 µM): 107%
viability, T/C (second compound 10 µM, first compound 0.1 µM): 96.2%
viability, T/C (second compound 10 µM, first compound 0.316 µM): 103%
viability, T/C (second compound 10 µM, first compound 1 µM): 88.5%
viability, T/C (second compound 10 µM, first compound 3.16 µM): 65.4%
viability, T/C (second compound 10 µM, first compound 10 µM): 61.4%

CC1COCCN1c1cc(-c2ccnn2C)c2ccnc(-c3ccn[nH]3)c2n1 (stereo not given)
viability, T/C (compound 0.0316 µM): 97.7% and 93.8% and 106%
viability, T/C (compound 0.1 µM): 76% and 76.1% and 87.4%
viability, T/C (compound 0.316 µM): 43.4% and 45% and 54.1%
viability, T/C (compound 1 µM): 33.5% (2×) and 32.2%
viability, T/C (compound 3.16 µM): 35.1% and 40.1% and 41%
viability, T/C (compound 10 µM): 48% and 44.6% and 47.2%
IC50 (curve of compound): 246 nM and 256 nM and 400 nM

C=CCn1c(=O)c2cnc(Nc3ccc(N4CCN(C)CC4)cc3)nc2n1-c1cccc(C(C)(C)O)n1
viability, T/C (compound 0.00316 µM): 101% and 105% and 108%
viability, T/C (compound 0.01 µM): 97.8% and 97.2% and 97%
viability, T/C (compound 0.0316 µM): 97.5% and 100% and 99.1%
viability, T/C (compound 0.1 µM): 102% (2×) and 106%
viability, T/C (compound 0.316 µM): 85.8% and 97% and 86.1%
viability, T/C (compound 1 µM): 24.8% and 36.2% and 38.5%
IC50 (curve of compound): 627 nM and 773 nM and 764 nM

CCc1c2c(nc3ccc(O)cc13)-c1cc3c(c(=O)n1C2)COC(=O)[C@]3(O)CC
viability, T/C (compound 0.00316 µM): 109% and 91.9% and 85.5%
viability, T/C (compound 0.0316 µM): 70.5% and 78% and 56.7%
viability, T/C (compound 0.1 µM): 56.5% and 58.4% and 51.8%
viability, T/C (compound 0.316 µM): 44.4% and 42.9% and 32.3%
viability, T/C (compound 1 µM): 27.6% and 37.6% and 25.5%
IC50 (curve of compound): 128 nM and 200 nM and 50.2 nM

Cn1ncnc1[C@H]1c2n[nH]c(=O)c3cc(F)cc(c23)N[C@@H]1c1ccc(F)cc1
viability, T/C (compound 0.000316 µM): 107% and 103% and 109%
viability, T/C (compound 0.001 µM): 95.2% and 97.2% and 98.7%
viability, T/C (compound 0.00316 µM): 95.3% and 101% and 95.1%
viability, T/C (compound 0.01 µM): 107% and 103% and 104%
viability, T/C (compound 0.0316 µM): 103% and 104% and 98.2%
viability, T/C (compound 0.1 µM): 91.1% and 96.3% and 85.5%
IC50 (curve of compound): > 100 nM

COc1cc(C2c3cc4c(cc3C(OC3OC5COC(C)OC5C(O)C3O)C3COC(=O)C23)OCO4)cc(OC)c1O (stereo not given)
viability, T/C (compound 0.0316 µM): 101% and 100% and 97.1%
viability, T/C (compound 0.1 µM): 96.5% and 97% and 97.3%
viability, T/C (compound 1 µM): 86.6% and 86% and 84.8%
viability, T/C (compound 3.16 µM): 59.9% (2×) and 65.3%
viability, T/C (compound 10 µM): 75.5% and 79.4% and 55.1%
IC50 (curve of compound): > 10000 nM
